One data set relates to MlrA. Nature of the data set: suspension of intact recombinant mlrA-HMBP-pET28a/BL21 in sterile water. The note with it: mlrA-HMBP-pET28a/BL21, 37 °C, up to 144 h.
Data set [1] can be described thus: CEs from HMBP-pET28a/BL21 (negative control) in sterile water. As to conditions: HMBP-pET28a/BL21, 37 °C, up to 12 h.
A short description of data set [2]: suspension of HMBP-pET28a/BL21 (negative control) in sterile water. The note with it: HMBP-pET28a/BL21, 37 °C, up to 144 h.
Data set [3] in a line: Strain m6 cells in MSM, pH 7, at 40 °C. The note with it: Sphingopyxis sp. m6, 40 °C, up to six days.
Data set [4] in a line: Strain m6 cells resuspended in sterile MSM (mineral salt medium). As to conditions: Sphingopyxis sp. m6, 30 °C, up to six days.
A short description of data set [5]: Sphingomonas sp. B-9 cells. As to conditions: cited from earlier work.
The test system of another data set is recombinant MlrA. Nature of the data set: CEs (cell-free extracts) of recombinant mlrA-HMBP-pET28a/BL21 in sterile water. As to conditions: mlrA-HMBP-pET28a/BL21, 37 °C, up to 48 h.
Data set [6] can be described thus: natural microbial communities in sediments. As to conditions: cited from earlier work.

“Also recorded” adds a separate entry of the source.

In the case of D-MeAsp, L-Arg, Adda, D-Glu, and Mdhb, the cleaved bond result was “Arg-Adda, first_seen” in the data set with MlrA; “Arg-Adda, first_seen; also recorded: Adda-Glu; also recorded: Glu-Mdhb; also recorded: Mdhb-MeAsp” in data set [4]; “Arg-Adda, first_seen” in the data set with recombinant MlrA. Moreover, the results for the not cleaved entry in data set [1], in data set [2] and in data set [3] were “remaining essentially unchanged”, “remaining essentially unchanged” and “the toxin concentration barely decreased”, respectively. The fragment found entry is “linear NOD and Adda” in data set [5]; “linear NOD and Adda and H-Glu-Mdhb-MeAsp-Arg-OH and H-Adda-Glu-Mdhb-MeAsp-OH and H-Adda-Glu-Mdhb-MeAsp-Cit-OH” in data set [6].

The values above are taken from paper PMC8618024 (2021).
